Source: patent US9550775B2, “Substituted triazolopyridines and methods of use thereof” (GENENTECH, INC., priority 2013, dated 2017)

target: human NaV1.7 (with β1 subunit) stably expressed in HEK-293 cells (Homo sapiens (Human), UniProt Q15858); assay: Patch voltage clamp electrophysiology assay (EP), inactivated-state block; type: cell-based; conditions: membrane potential held at -60 mV; read-out: affinity for the inactivated state of NaV1.7
Method: Patch voltage clamp electrophysiology allows for the direct measurement and quantification of block of voltage-gated sodium channels (NaV's), and allows the determination of the time- and voltage-dependence of block which has been interpreted as differential binding to the resting, open, and inactivated states of the sodium channel (Hille, B., Journal of General Physiology (1977), 69: 497-515).
Currents were recorded at 40 kHz sampling frequency, filtered at […], and stored using a Digidata-1322A analogue/digital interface with the pClamp software (Axon Instruments). Series resistance compensation was applied (60-80%). […] All statistics in this study are given as mean±SD.
The membrane potential was maintained at a voltage where inactivation of the channel is complete (which was −60 mV for both NaV1.7 and NaV1.5). The voltage is then stepped back to a very negative (Vhold=[…]) voltage for 20 ms and then a test pulse is applied to quantify the compound block. The 20 ms brief repolarization was long enough for compound-free channels to completely recover from fast inactivation, but the compound-bound channels recovered more slowly such that negligible recovery could occur during this interval. The percent decrease in sodium current following wash-on of compound was taken as the percent block of sodium channels.

human NaV1.7 (with β1 subunit) stably expressed in HEK-293 cells, sequence (Q15858 other isoform, or with tags, fused parts or gaps): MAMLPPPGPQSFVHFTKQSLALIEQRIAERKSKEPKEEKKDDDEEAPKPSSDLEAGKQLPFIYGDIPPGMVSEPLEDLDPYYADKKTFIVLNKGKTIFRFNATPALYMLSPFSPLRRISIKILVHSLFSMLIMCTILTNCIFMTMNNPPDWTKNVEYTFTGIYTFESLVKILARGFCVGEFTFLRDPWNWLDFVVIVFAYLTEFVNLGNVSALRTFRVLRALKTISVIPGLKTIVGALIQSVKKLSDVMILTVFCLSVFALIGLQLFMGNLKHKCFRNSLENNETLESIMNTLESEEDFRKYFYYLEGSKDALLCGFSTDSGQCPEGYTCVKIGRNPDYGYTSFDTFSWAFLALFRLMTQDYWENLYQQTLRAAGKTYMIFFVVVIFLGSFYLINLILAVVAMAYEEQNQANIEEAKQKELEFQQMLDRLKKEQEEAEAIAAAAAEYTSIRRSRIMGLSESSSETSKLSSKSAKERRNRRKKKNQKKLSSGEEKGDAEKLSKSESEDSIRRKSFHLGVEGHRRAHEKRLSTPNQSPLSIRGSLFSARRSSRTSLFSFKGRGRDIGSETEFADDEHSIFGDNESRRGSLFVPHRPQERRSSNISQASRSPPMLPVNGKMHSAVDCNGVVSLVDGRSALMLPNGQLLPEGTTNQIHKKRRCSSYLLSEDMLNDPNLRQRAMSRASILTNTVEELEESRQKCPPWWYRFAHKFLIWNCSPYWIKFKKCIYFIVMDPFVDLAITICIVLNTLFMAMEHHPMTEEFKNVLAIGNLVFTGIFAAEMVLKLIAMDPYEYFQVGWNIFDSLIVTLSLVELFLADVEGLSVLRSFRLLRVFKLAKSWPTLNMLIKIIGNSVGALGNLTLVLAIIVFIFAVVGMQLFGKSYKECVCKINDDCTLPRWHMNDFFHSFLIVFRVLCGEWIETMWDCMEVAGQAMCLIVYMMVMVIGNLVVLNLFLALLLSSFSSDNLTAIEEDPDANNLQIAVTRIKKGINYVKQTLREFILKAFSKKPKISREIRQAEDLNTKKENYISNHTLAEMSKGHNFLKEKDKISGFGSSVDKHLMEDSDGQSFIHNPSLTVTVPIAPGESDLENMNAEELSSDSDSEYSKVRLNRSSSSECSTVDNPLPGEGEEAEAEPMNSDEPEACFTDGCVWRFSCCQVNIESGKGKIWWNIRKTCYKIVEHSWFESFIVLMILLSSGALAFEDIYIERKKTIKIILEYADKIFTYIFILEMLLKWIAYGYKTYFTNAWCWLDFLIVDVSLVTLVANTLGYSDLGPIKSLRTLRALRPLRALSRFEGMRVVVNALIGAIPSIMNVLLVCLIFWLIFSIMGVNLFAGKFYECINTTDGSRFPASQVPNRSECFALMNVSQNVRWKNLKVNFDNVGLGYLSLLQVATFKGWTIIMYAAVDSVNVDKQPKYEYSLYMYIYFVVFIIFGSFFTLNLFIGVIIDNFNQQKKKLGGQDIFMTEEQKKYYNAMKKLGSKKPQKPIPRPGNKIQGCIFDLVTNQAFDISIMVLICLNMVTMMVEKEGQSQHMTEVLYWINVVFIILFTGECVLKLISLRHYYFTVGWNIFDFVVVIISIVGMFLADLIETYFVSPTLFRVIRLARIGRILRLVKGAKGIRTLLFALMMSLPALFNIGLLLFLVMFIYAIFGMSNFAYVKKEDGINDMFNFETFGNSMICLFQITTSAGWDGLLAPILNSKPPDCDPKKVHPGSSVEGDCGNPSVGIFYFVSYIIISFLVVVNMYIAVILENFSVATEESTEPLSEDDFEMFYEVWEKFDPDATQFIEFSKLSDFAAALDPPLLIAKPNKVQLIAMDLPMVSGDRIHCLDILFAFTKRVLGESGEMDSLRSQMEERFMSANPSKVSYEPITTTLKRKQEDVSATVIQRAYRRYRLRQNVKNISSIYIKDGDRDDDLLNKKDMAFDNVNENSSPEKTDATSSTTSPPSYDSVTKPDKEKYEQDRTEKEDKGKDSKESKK
human NaV1.7 (with β1 subunit) stably expressed in HEK-293 cells, sequence (Q07699 19-218 partner): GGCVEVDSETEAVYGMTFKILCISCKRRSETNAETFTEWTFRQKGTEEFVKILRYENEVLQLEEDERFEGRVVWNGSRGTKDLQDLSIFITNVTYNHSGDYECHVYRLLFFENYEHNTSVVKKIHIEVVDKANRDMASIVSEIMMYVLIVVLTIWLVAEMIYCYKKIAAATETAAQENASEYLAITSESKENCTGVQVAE

Row | Compound | IC50 [nM]
1 | CS(=O)(=O)Nc1nnc2cc(COc3ccc(Cl)c(Cl)c3)c(Br)cn12 [Example 55, N-(6-bromo-7-((3,4-dichlorophenoxy)methyl)-[1,2,4]-triazolo[4,3-a]pyridin-3-yl)-methanesulfonamide] | 2.6

target: hNav1.7 (Homo sapiens (Human), UniProt Q15858); assay: Tritiated sulfonamide competitive binding to membranes from cells expressing hNav1.7 and the β1 subunit; conditions: 100 pM [3H]compound, 18 h, room temperature; inactivated state of NaV1.7 membrane binding; read-out: NaV1.7 Ligand Binding Assay (IC50);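 further: displacement of the tritiated ligand from recombinant cell membranes, read by liquid scintillation counting of filter-bound radioactivity, nonspecific binding defined with 1 µM unlabelled compound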
Sequence (Q15858 other isoform, or with tags, fused parts or gaps): as the sequence (Q15858 other isoform, or with tags, fused parts or gaps) above
Sequence (Q07699 19-218 partner): as the sequence (Q07699 19-218 partner) above

Row | Compound | IC50 [nM]
2 | CS(=O)(=O)Nc1nnc2cc(COc3ccc(Cl)c(Cl)c3)c(Br)cn12 [Example 55, N-(6-bromo-7-((3,4-dichlorophenoxy)methyl)-[1,2,4]-triazolo[4,3-a]pyridin-3-yl)-methanesulfonamide] | 2.6
3 | O=S(=O)(Nc1nnc2cc(COc3ccc(Cl)c(Cl)c3)c(C3CC3)cn12)N1CCC1 [Example 96, N-(6-cyclopropyl-7-((3,4-dichlorophenoxy)methyl)-[1,2,4]triazolo[4,3-a]pyridin-3-yl)azetidine-1-sulfonamide] | 19
4 | O=S(=O)(Nc1nnc2cc(OCCC34CC5CC(CC(C5)C3)C4)c(C3CC3)cn12)C1CC1 [Example 22] | 7.35
5 | CS(=O)(=O)Nc1nnc2cc(OCCC34CC5CC(CC(C5)C3)C4)c(C3CC3)cn12 [Example 21] | 8.51
6 | CS(=O)(=O)Nc1nnc2cc(OCC3CC4C5CCC(C5)C4C3)c(C3CC3)cn12 [Example 80, N-(6-cyclopropyl-7-(((2s,3aR,4S,7R,7aS)-octahydro-1H-4,7-methanoinden-2-yl)methoxy)-[1,2,4]triazolo[4,3-a]pyridin-3-yl)methanesulfonamide] | 5
7 | CC1(S(=O)(=O)Nc2nnc3cc(COc4cc(Cl)cc(Cl)c4)c(C4CC4)cn23)CC1 [Example 105, N-(6-cyclopropyl-7-((3,5-dichlorophenoxy)methyl)-[1,2,4]-triazolo[4,3-a]pyridin-3-yl)-1-methylcyclopropane-1-sulfonamide] | 5
8 | O=S(=O)(Nc1nnc2cc(OCC3CCC4(CC3)CC4)c(C3CC3)cn12)C1CC1 [Example 16, N-(6-cyclopropyl-7-(spiro[2.5]octan-6-ylmethoxy)-[1,2,4]triazolo[4,3-a]pyridin-3-yl)cyclopropanesulfonamide] | 21.7
9 | C=C(C)c1cn2c(NS(C)(=O)=O)nnc2cc1OCC12CC3CC(CC(C3)C1)C2 [Example 63, N-(7-((3r,5r,7r)-adamantan-1-ylmethoxy)-6-(prop-1-en-2-yl)-[1,2,4]triazolopyridin-3-yl)methanesulfonamide] | 51
10 | CC1(COc2cc3nnc(NS(=O)(=O)C4CC4)n3cc2C2CC2)CCN(Cc2cc(Cl)cc(Cl)c2)CC1 [Example 111, N-(6-cyclopropyl-7-((1-(3,5-dichlorobenzyl)-4-methylpiperidin-4-yl)methoxy)-[1,2,4]triazolo[4,3-a]pyridin-3-yl)cyclopropanesulfonamide] | 8
11 | O=S(=O)(Nc1nnc2cc(OC3C4CC5CC(C4)CC3C5)c(C3CC3)cn12)C1CC1 (centres unmarked) [Example 24, N-(7-(adamantan-2-yloxy)-6-cyclopropyl-[1,2,4]triazolo-[4,3-a]pyridin-3-yl)cyclopropanesulfonamide] | 65.8
